According to ChEMBL document CHEMBL1909294, “Translating clinical findings into knowledge in drug safety evaluation--drug induced liver injury prediction system (DILIps)” (PLoS Comput Biol, 2011):

Legend:
Hepatotoxicity [1] = tested on: Hepatotoxicity;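 on HepSE bilirubinemia: bilirubinemia hepatic side effect score drawn from the DILIps training data, a prediction system for drug-induced liver injury; call rule not given here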;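 on HepSE cholecystitis: Cholecystitis-related hepatic side effect score drawn from the DILIps (drug-induced liver injury prediction) training data set; call rule not given here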;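 on HepSE cholelithiasis: hepatic side effect score for cholelithiasis, drawn from the DILIps training data for predicting drug-induced liver injury; call rule not given here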;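 on HepSE cirrhosis: cirrhosis hepatic side effect score taken from the DILIps (drug-induced liver injury prediction) training set; call rule not given here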;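 on HepSE elevated liver function tests: hepatic side effect score for raised liver function tests, as recorded in the DILIps training set used for predicting drug-induced liver injury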; on HepSE hepatic failure: call rule not given here;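 on HepSE hepatomegaly: hepatic side effect score for hepatomegaly, taken from the training set of the DILIps drug-induced liver injury prediction system; call rule not given here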
Hepatotoxicity [2] = tested on: Hepatotoxicity; remark: listed apart in the source;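 on HepSE bilirubinemia: bilirubinemia hepatic side effect score drawn from the DILIps training data, a prediction system for drug-induced liver injury; call rule not given here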;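 on HepSE cholecystitis: Cholecystitis-related hepatic side effect score drawn from the DILIps (drug-induced liver injury prediction) training data set; call rule not given here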;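 on HepSE cholelithiasis: hepatic side effect score for cholelithiasis, drawn from the DILIps training data for predicting drug-induced liver injury; call rule not given here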;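 on HepSE cirrhosis: cirrhosis hepatic side effect score taken from the DILIps (drug-induced liver injury prediction) training set; call rule not given here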;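 on HepSE elevated liver function tests: hepatic side effect score for raised liver function tests, as recorded in the DILIps training set used for predicting drug-induced liver injury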; on HepSE hepatic failure: call rule not given here;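 on HepSE hepatomegaly: hepatic side effect score for hepatomegaly, taken from the training set of the DILIps drug-induced liver injury prediction system; call rule not given here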
Hepatotoxicity [3] = tested on: Hepatotoxicity; remark: listed apart in the source;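 on HepSE bilirubinemia: bilirubinemia hepatic side effect score drawn from the DILIps training data, a prediction system for drug-induced liver injury; call rule not given here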;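 on HepSE cholecystitis: Cholecystitis-related hepatic side effect score drawn from the DILIps (drug-induced liver injury prediction) training data set; call rule not given here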;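 on HepSE cholelithiasis: hepatic side effect score for cholelithiasis, drawn from the DILIps training data for predicting drug-induced liver injury; call rule not given here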;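 on HepSE cirrhosis: cirrhosis hepatic side effect score taken from the DILIps (drug-induced liver injury prediction) training set; call rule not given here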;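 on HepSE elevated liver function tests: hepatic side effect score for raised liver function tests, as recorded in the DILIps training set used for predicting drug-induced liver injury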; on HepSE hepatic failure: call rule not given here
Hepatotoxicity [4] = tested on: Hepatotoxicity; remark: listed apart in the source;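 on HepSE bilirubinemia: bilirubinemia hepatic side effect score drawn from the DILIps training data, a prediction system for drug-induced liver injury; call rule not given here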;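 on HepSE cholecystitis: Cholecystitis-related hepatic side effect score drawn from the DILIps (drug-induced liver injury prediction) training data set; call rule not given here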;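 on HepSE cholelithiasis: hepatic side effect score for cholelithiasis, drawn from the DILIps training data for predicting drug-induced liver injury; call rule not given here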;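 on HepSE cirrhosis: cirrhosis hepatic side effect score taken from the DILIps (drug-induced liver injury prediction) training set; call rule not given here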;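 on HepSE elevated liver function tests: hepatic side effect score for raised liver function tests, as recorded in the DILIps training set used for predicting drug-induced liver injury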; on HepSE hepatic failure: call rule not given here
Hepatotoxicity [5] = tested on: Hepatotoxicity; remark: listed apart in the source; on HepSE hepatic failure: call rule not given here
Hepatotoxicity [6] = tested on: Hepatotoxicity; remark: listed apart in the source; on HepSE hepatic failure: call rule not given here
Hepatotoxicity [7] = tested on: Hepatotoxicity; remark: listed apart in the source
Hepatotoxicity [8] = tested on: Hepatotoxicity; remark: listed apart in the source
Hepatotoxicity [9] = tested on: Hepatotoxicity; remark: listed apart in the source
Hepatotoxicity [10] = tested on: Hepatotoxicity; remark: listed apart in the source
Hepatotoxicity [11] = tested on: Hepatotoxicity; remark: listed apart in the source
Hepatotoxicity [12] = tested on: Hepatotoxicity; remark: listed apart in the source
Hepatotoxicity [13] = tested on: Hepatotoxicity; remark: listed apart in the source
Hepatotoxicity [14] = tested on: Hepatotoxicity; remark: listed apart in the source

SMILES | HepSE_bilirubinemia (Hepatotoxicity [1]) | HepSE_cholecystitis (Hepatotoxicity [2]) | HepSE_cholelithiasis (Hepatotoxicity [3]) | HepSE_cirrhosis (Hepatotoxicity [4]) | HepSE_elevated liver function tests (Hepatotoxicity [5]) | HepSE_hepatic failure (Hepatotoxicity [6]) | HepSE_hepatic necrosis (Hepatotoxicity [7]) | HepSE_hepatitis (Hepatotoxicity [8]) | HepSE_hepatomegaly (Hepatotoxicity [9]) | HepSE_jaundice (Hepatotoxicity [10]) | HepSE_liver disease (Hepatotoxicity [11]) | HepSE_liver fatty (Hepatotoxicity [12]) | HepSE_liver function tests abnormal (Hepatotoxicity [13]) | HepSE_Combined Scores (Hepatotoxicity [14]) | further results
Cc1nnc2n1-c1ccc(Cl)cc1C(c1ccccc1)=NC2 [ALPRAZOLAM] | 0 | 0 | 0 | 0 | 0 | 1 | 0 | 1 | 0 | 1 | 0 | 0 | 0 | 3 | –
CCCCC[C@H](O)/C=C/[C@H]1[C@H](O)CC(=O)[C@@H]1CCCCCCC(=O)O [ALPROSTADIL] | 1 | 0 | 0 | 0 | 0 | 0 | 0 | 0 | 0 | 0 | 0 | 0 | 0 | 1 | –
NC12CC3CC(CC(C3)C1)C2 [AMANTADINE] | 0 | 0 | 0 | 0 | 0 | 0 | 0 | 0 | 0 | 0 | 0 | 0 | 0 | 0 | –
CC[N+](CC)(CCNC(=O)C(=O)NCC[N+](CC)(CC)Cc1ccccc1Cl)Cc1ccccc1Cl [AMBENONIUM] | 0 | 0 | 0 | 0 | 0 | 0 | 0 | 0 | 0 | 0 | 0 | 0 | 0 | 0 | –
COC(c1ccccc1)(c1ccccc1)[C@H](Oc1nc(C)cc(C)n1)C(=O)O [AMBRISENTAN] | 0 | 0 | 0 | 0 | 0 | 0 | 0 | 0 | 0 | 0 | 0 | 0 | 0 | 0 | –
CC(=O)OCC(=O)[C@@]12OC3(CCCC3)O[C@@H]1C[C@H]1[C@@H]3CCC4=CC(=O)C=C[C@]4(C)[C@@]3(F)[C@@H](O)C[C@@]12C [AMCINONIDE] | 0 | 0 | 0 | 0 | 0 | 0 | 0 | 0 | 0 | 0 | 0 | 0 | 0 | 0 | –
NCCCNCCSP(=O)(O)O [AMIFOSTINE] | – | – | – | – | – | – | – | – | – | – | – | – | – | – | HepSE_bilirubinemia (Hepatotoxicity [1]; Liver): 0; HepSE_cholecystitis (Hepatotoxicity [2]; Liver): 0; HepSE_cholelithiasis (Hepatotoxicity [3]; Liver): 0; HepSE_cirrhosis (Hepatotoxicity [4]; Liver): 0; HepSE_elevated liver function tests (Hepatotoxicity [5]; Liver): 0; HepSE_hepatic failure (Hepatotoxicity [6]; Liver): 0; HepSE_hepatic necrosis (Hepatotoxicity [7]; Liver): 0; HepSE_hepatitis (Hepatotoxicity [8]; Liver): 0; HepSE_hepatomegaly (Hepatotoxicity [9]; Liver): 0; HepSE_jaundice (Hepatotoxicity [10]; Liver): 0; HepSE_liver disease (Hepatotoxicity [11]; Liver): 0; HepSE_liver fatty (Hepatotoxicity [12]; Liver): 0; HepSE_liver function tests abnormal (Hepatotoxicity [13]; Liver): 0; HepSE_Combined Scores (Hepatotoxicity [14]; Liver): 0
NCC[C@H](O)C(=O)N[C@@H]1C[C@H](N)[C@@H](O[C@H]2O[C@H](CN)[C@@H](O)[C@H](O)[C@H]2O)[C@H](O)[C@H]1O[C@H]1O[C@H](CO)[C@@H](O)[C@H](N)[C@H]1O [AMIKACIN] | 0 | 0 | 0 | 0 | 0 | 0 | 0 | 0 | 0 | 0 | 0 | 0 | 0 | 0 | –
N=C(N)NC(=O)c1nc(Cl)c(N)nc1N [AMILORIDE] | 0 | 0 | 0 | 0 | 0 | 0 | 0 | 0 | 0 | 1 | 1 | 0 | 0 | 2 | –
NCCCCCC(=O)O [AMINOCAPROIC ACID] | 0 | 0 | 0 | 0 | 0 | 0 | 0 | 0 | 0 | 0 | 0 | 0 | 0 | 0 | –
CCC1(c2ccc(N)cc2)CCC(=O)NC1=O (configuration not stated) [AMINOGLUTETHIMIDE] | 0 | 0 | 0 | 0 | 0 | 0 | 0 | 0 | 0 | 0 | 0 | 0 | 0 | 0 | –
Nc1ccc(C(=O)NCC(=O)O)cc1 [AMINOHIPPURIC ACID] | 0 | 0 | 0 | 0 | 0 | 0 | 0 | 0 | 0 | 0 | 0 | 0 | 0 | 0 | –
NCC(=O)CCC(=O)O [AMINOLEVULINIC ACID] | 0 | 0 | 0 | 0 | 0 | 0 | 0 | 0 | 0 | 0 | 0 | 0 | 0 | 0 | –
Cn1c(=O)c2[nH]cnc2n(C)c1=O.Cn1c(=O)c2[nH]cnc2n(C)c1=O.NCCN [AMINOPHYLLINE] | 0 | 0 | 0 | 0 | 0 | 0 | 0 | 0 | 0 | 0 | 0 | 0 | 0 | 0 | –
CN(C)CCC=C1c2ccccc2CCc2ccccc21 [AMITRIPTYLINE] | 0 | 0 | 0 | 0 | 0 | 1 | 0 | 1 | 0 | 1 | 0 | 0 | 0 | 3 | –
CCOC(=O)C1=C(COCCN)NC(C)=C(C(=O)OC)C1c1ccccc1Cl (configuration not stated) [AMLODIPINE] | 0 | 0 | 0 | 0 | 0 | 0 | 0 | 1 | 0 | 1 | 0 | 0 | 0 | 2 | –
Cl.N [AMMONIUM CHLORIDE] | 0 | 0 | 0 | 0 | 0 | 0 | 0 | 0 | 0 | 0 | 0 | 0 | 0 | 0 | –
Clc1ccc2c(c1)C(N1CCNCC1)=Nc1ccccc1O2 [AMOXAPINE] | 0 | 0 | 0 | 0 | 0 | 0 | 0 | 1 | 0 | 1 | 0 | 0 | 0 | 2 | –
